Values after ≈ are worked out from the molar mass of the structure shown. Like-named read-outs stand apart in the source and are kept apart here.
How the values were obtained:
[1] = acute toxicity (LD50), intraperitoneal, ddY male mice; conditions: mouse, in vivo, ip, ddY male mice (6 weeks age)
Procedure: (§1) The pharmacological action of the product of the present invention can be conventionally observed as follows: 50 mg/kg of a sample was administered orally to spontaneously hypertensive rats (male 20-40 weeks age) and percent decrease in blood pressure after 1, 2, 3 and 5 hours was determined, using the known fusaric acid as a reference. Acute toxicity of the compounds was determined by introperitoneal administration of the samples to ddY male mice (6 weeks age), followed by calculation of the values after observation for one week. The results are as follows:

[2] = target: T1, dopamine-β-hydroxylase (Bos taurus, UniProt P15101); assay: dopamine-β-hydroxylase inhibitory activity; type: biochemical
T1 sequence (P15101 1-610): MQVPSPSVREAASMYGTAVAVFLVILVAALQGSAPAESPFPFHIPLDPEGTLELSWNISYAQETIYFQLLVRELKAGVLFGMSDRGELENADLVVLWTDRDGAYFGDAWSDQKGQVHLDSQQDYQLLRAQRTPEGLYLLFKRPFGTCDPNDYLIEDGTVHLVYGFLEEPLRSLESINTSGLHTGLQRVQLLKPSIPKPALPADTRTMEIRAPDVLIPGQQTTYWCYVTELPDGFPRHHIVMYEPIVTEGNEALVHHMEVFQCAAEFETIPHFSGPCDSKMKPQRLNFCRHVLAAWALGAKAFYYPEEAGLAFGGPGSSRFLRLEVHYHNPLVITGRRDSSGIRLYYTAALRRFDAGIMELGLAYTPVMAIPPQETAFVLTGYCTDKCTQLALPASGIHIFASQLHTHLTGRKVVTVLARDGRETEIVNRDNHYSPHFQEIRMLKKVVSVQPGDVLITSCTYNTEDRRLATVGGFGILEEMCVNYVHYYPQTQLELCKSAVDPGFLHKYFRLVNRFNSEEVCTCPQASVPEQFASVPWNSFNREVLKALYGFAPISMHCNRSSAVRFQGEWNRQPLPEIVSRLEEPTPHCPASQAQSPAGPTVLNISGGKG

[3] = test system: spontaneously hypertensive rats; assay: percent decrease in blood pressure in spontaneously hypertensive rats, oral; type: in vivo, spontaneously hypertensive rats (male); conditions: for % Decrease in blood pressure, 1hr.: after 1 hr; for % Decrease in blood pressure, 2hrs.: after 2 hrs; for % Decrease in blood pressure, 3hrs.: after 3 hrs; for inhibition in vivo at 50 mg/kg: Rattus norvegicus, po, read-out: % Decrease in blood pressure, 5hrs.
Procedure: as §1, with “week.” for “week. The results are as follows:”

[4] = observation for one week (second table), read-out: LD50 (i.p.)
[5] = 50 mg/kg orally, spontaneously hypertensive rats (male 20-40 weeks)
[6] = 50 mg/kg orally, spontaneously hypertensive rats (male 20-40 weeks), after 5 hrs
[7] = intraperitoneal, observation for one week (first table), read-out: LD50

SMILES | LD50 at 168 h [1, 4] [mg/kg] | IC50 [2] [nM] | % Decrease in blood pressure, 1hr. [3, 5] [%] | % Decrease in blood pressure, 2hrs. [3, 5] [%] | % Decrease in blood pressure, 3hrs. [3, 5] [%] | inhibition in vivo at 50 mg/kg [3, 6] [%] | LD50 at 168 h [1, 7] [mg/kg] | further results
O=C(O)c1ccc(Cc2ccccc2O)cn1 [5-(2-Hydroxybenzyl)-picolinic Acid] | 354 | 91.6 |  |  |  |  |  | 
COc1ccccc1Cc1ccc(C(=O)O)nc1 [5-(2-Methoxybenzyl)-picolinie acid, 5-(2-Methoxybenzyl)picolinic acid] |  |  | 25.9 | 26.9 | 26.0 | 25.5 | 177 | 
O=C(O)c1ccc(Cc2ccc(O)c(O)c2)cn1 [5-(3,4-Dihydroxybenzyl)-picolinic Acid, 5-(3,4-dihydroxybenzyl)picolinic acid] | 561 | 35.9 |  |  |  |  |  | 
Nc1ccc(Cc2ccc(C(=O)O)nc2)cc1 [5-(4-Aminobenzyl)-picolinic Acid] |  | 333 |  |  |  |  |  | 
O=C(O)c1ccc(Cc2ccc(Cl)cc2)cn1 [5-(4-Chlorobenzyl)-picolinic acid, 5-(4-Chlorobenzyl)picolinic acid] |  |  | 26.4 | 42.1 | 48.6 | 50.3 | 120 | 
O=C(O)c1ccc(Cc2ccc(O)cc2)cn1 [5-(4-Hydroxybenzyl)-picolinic Acid, 5-(4-hydroxybenzyl)picolinic acid] | 193 |  |  |  |  |  |  | ID50 ([2]; dopamine-β-hydroxylase inhibition): 8.9 ng/mL (≈ 0.0388 µM)
COc1ccc(Cc2ccc(C(=O)O)nc2)cc1 [5-(4-Methoxybenzyl)-picolinic acid, 5-(4-methoxybenzyl)picolinic acid] |  |  | 24.8 | 28.1 | 23.4 | 21.9 | 132 | 
O=C(O)c1ccc(Cc2ccc([N+](=O)[O-])cc2)cn1 [5-(4-Nitrobenzyl)-picolinic acid, 5-(4-nitrobenzyl)picolinic acid] |  |  |  |  |  | 39.8 | 177 | 
O=C(NCc1ccccc1)c1ccc(Cc2ccccc2)cn1 [5-Benzylpicolinic acid N-benzylamide] |  |  |  |  |  | 27.1 | 707 | 
O=C(O)c1ccc(Cc2ccccc2)cn1 [5-Benzylpicolinic acid, 5-benzylpicolinic acid] |  |  | 12.7 | 19.0 | 24.9 | 29.5 | 138 | 
CCOC(=O)c1ccc(Cc2ccc(O)cc2)cn1 [Ethyl 5-(4-hydroxybenzyl)-picolinate, ethyl 5-(4-hydroxybenzyl)picolinate] | 594 | 27.6 |  |  |  |  |  | 
CCOC(=O)c1ccc(Cc2ccccc2)cn1.Cl [Ethyl 5-benzylpicolinate (Hydrochloride), ethyl 5-benzylpicolinate hydrochloride] |  |  |  |  |  | 32.4 | 140 | 
CCCCc1ccc(C(=O)O)nc1 [Fusaric acid, reference compound] |  | 83.7 | 15.6 | 21.3 | 16.5 |  | 80 | inhibition in vivo at 50 mg/kg ([3]; 5 h): 21%
COC(=O)c1ccc(Cc2ccc(O)cc2)cn1 [Methyl 5-(4-hydroxybenzyl)-picolinate, methyl 5-(4-hydroxybenzyl)-picolinate] | 1000 | 28.8 |  |  |  |  |  | 
COC(=O)c1ccc(Cc2ccccc2)cn1 [Methyl 5-benzylpicolinate] |  |  |  |  |  | 48.8 | 88 | 
O=C(O)c1ccccn1 [Picolinic Acid] |  | 8120 |  |  |  |  |  | 
